Results: patent US10022382B2, “RNA polymerase I inhibitors and uses thereof” (Tel HaShomer Medical Research Infrastructure and Services …, priority 2013, dated 2018)

Tests used:
[1] = system: MOG35-55 EAE in C57BL/6J mice; assay: MOG35-55 EAE prevention (immunization) model; type: in vivo; settings: for minimal effective dose: oral
Protocol: Mice: Eight-weeks-old female C57BL/6J mice (15-20 g, Harlan laboratories, Rehovot, Israel) were used in all experiments. Animal maintenance and experimental protocols were performed in accordance with the Israeli Council for Animal Care guidelines and approved by Sheba IRB Animal Care Committee. Mice were kept in an SPF environment, maintained on a 12-h light/dark cycle at a constant environmental temperature with free access to food and water in their home cages.
Induction of MOG35-55 EAE (Prevention Model): EAE (Experimental Autoimmune Encephalomyelitis) was induced in 8 week old female C57BL/6J mice (15-20 g, Harlan laboratories, Rehovot, Israel) by immunization with an emulsion containing 300 μg of purified myelin oligodendrocyte glycoprotein (MOG) peptide ([…], corresponding to residues 35-55; obtained from (Difco, Detroit, Mich.) in saline and an equal volume of complete Freund's adjuvant containing 5 mg H37RA (Difco, Detroit, Mich.). 0.2 ml of the inoculum was injected subcutaneously. In addition, 300 ng of Bordetella pertusis toxin (Sigma) in 0.2 ml saline was injected intraperitoneally at the day of induction and two days later.
Oral gavages with the tested compound, at various concentrations ranging from 3 mg/kg-30 mg/kg in PBS or 50 mM NaH2PO4 (PH 4.5), or with vehicle only, were initiated at day of immunization. Mice were monitored daily for clinical signs of EAE, scored as: 1, flaccid tail; 2, forelimb weakness and poor righting ability; 3, hind limb paralysis; 4, quadriplegia; 5, moribund. Animal reaching a score of 4 were scarified using CO2.
Treatment was stopped once 30% of the vehicle-treated animals scored 1 on the EAE score. […]
The therapeutic index (LD50/ED50), which is also referred to herein as Safety Margin (SM), was then determined based on the EAE model. ED50 is the minimum effective dose observed for 50% of the tested animals.

pre-rRNA = assay: Q-RT-PCR of pre-rRNA in PHA-stimulated splenocytes of naive mice; type: cell-based; settings: 72 hours, 25 to 400 nM
Protocol: RNA samples from similar cultures were also prepared and tested by Q-RT-PCR for pre-rRNA expression levels as described in Example herein below.
RNA Extraction: For in vivo experiments spleens from EAE mice were isolated at day 17 post immunization and splenocytes were re-stimulated for 72 h hours in the presence of 5.0 μg/ml MOG35-55. For in-vitro experiments spleens from intact mice were isolated and splenocytes were stimulated with for 72 h in the presence of PHA. RNA was extracted from splenocytes of both the in-vitro and in-vivo experiments by robotic ABI PRISM, Applied biosystem 6100 Nucleic Acid Prep Station. To avoid genomic DNA contamination samples were treated with DNase I (Roche). The quality and integrity of the total RNA preparation was confirmed using a NanoDrop 2000c Spectrophotometer (Thermo Scientific).
Quantitative RT-PCR of Pre-rRNA: Complementary DNA was obtained from the extracted RNA by the High capacity cDNA reverse transcription kit (Applied Biosystems, CA, USA) following manufacturer's instructions. To confirm the role of POL1 pathway suppression by POL1-Inhibitors, the expression level of pre-rRNA transcript, a key gene of the RNA polymerase I pathway, was evaluated by Q-RT-PCR (n=3 per group). […] (SEQ ID NO: 70) with a quantification probe (Roche, Probe ID #1, cat. no. 04684974001). […]

Mouse splenocytes = assay: XTT cell viability assay, PHA-stimulated splenocytes; type: cell-based; settings: 72 hours
Protocol: Cell viability was assessed by the 2,3 bis [2-Methoxy-4-nitro-5-sulfophenyl]-2H-tetrazolium-5-carboxanilide (XTT) assay (Biological Industries, Kibbutz Beit Hemeek, Israel), which measures the reduction of a tetrazolium component (XTT) into soluble formazan product by the mitochondria of viable cells. The intensity of the dye obtained is proportional to the number of metabolic active cells. On the day of measurement, cells were washed and XTT was added according to the manufacturer's instructions. Plates were incubated at 37° C. for 2-5 hours. The absorbance was read at 450 nm.
Mouse splenocytes were removed and spleenocytes were plated (250,000 cell/well) in DMEM+10% FCS+P/S+Q and […] Phytohaemaglutinin (PHA), in the presence of elevated concentrations (25-400 nM) of RAM-0 (Compound 1), RAM-1 (Compound 4), RAM-2 (Compound 2) or RAM-3 (Compound 3) for 72 hours. Cells cultured without PHA served as control. Control mice at zero are mice splenocytes with PHA stimulation.
Following incubation, cell viability was determined by XTT assay, as described above.

Pol I = assay: Cell-free Pol I transcription assay; type: biochemical, human; settings: 200 nM
Protocol: Cell-free Pol I transcription assay was performed according to Drygin et al. (2010). Briefly, a reaction mixture consisting of 8 units of HeLa scribe nuclear extract (Promega) in transcription buffer and MgCl2 (4 mM) was combined with POL1-Inhibitor (200 nM) and […] a-amanitin (Sigma) for 20 minutes at ambient temperature. Following, 10 ng DNA template (GENEWIZ, Inc.; http://www(dot)genewiz(dot)com(dot)cn) corresponding to the (−160/+350) region on human rDNA was added and the reaction was incubated for 5 minutes at ambient temperature. Transcription was initiated by adding rNTPs mix to a final concentration of 1 mM and the reaction was incubated for 1 hour at 30° C. Afterward, DNase I (Ambion kit) was added and the reaction was further incubated for 25 minutes at 37° C. DNase activity was terminated with adding an inactivation solution according the manufacturer's protocol. The samples were then subjected for RNA isolation (following the same procedure described in Example 3 hereinabove). Pellets of RNA were re-suspended in DEPC-treated double distilled water and subjected for reverse transcription by a High capacity kit (Applied Biosystems). The resultant transcripts were analyzed by qRT-PCR in a Light cycler 480 system using primer pairs (Sigma) and probe for real-time PCR. […]

Which disease incidence ([1]; 3 mg/kg, alternate days) does the source give for `Cc1cnc(CNC(=O)c2/c(=N/c3ccccc3)c3ccc(N4CCCN(C)CC4)nc3n3c2sc2ccccc23)cn1` [Compound 10, (E)-2-(4-methyl-1,4-diazepan-1-yl)-N-((5-methylpyrazin-2-yl)methyl)-5-(phenylimino)-5H-benzo[4,5]thiazolo[3,2-a][1,8]naphthyridine-6-carboxamide] here?
Its disease incidence is 98%.

What about the “delay of disease development” value ([1]; 12.0 mg/kg oral, alternate days) of the same compound?
Its value is 10 days.

And the EAE severity ([1]; 12.0 mg/kg oral, alternate days, 23 day post immunization)?
Its EAE severity is “suppressed EAE severity”.

And the “EAE onset (dpi)” value ([1]; 12.5 mg/Kg oral, 15 mice)?
The value was 19.2 ± 0.6 dpi.

And the Max clinical score ([1]; 12.5 mg/Kg oral, 15 mice)?
The Max clinical score was 1.2 ± 0.4.

What about the “Peak of EAE (dpi)” value ([1]; 12.5 mg/Kg oral, 15 mice) of the same compound?
The value was 20.4 ± 0.7 dpi.

What about the Cumulative disease score ([1]; 12.5 mg/Kg oral, sum of scores day 0 to day 31) of the same compound?
Its Cumulative disease score is 7.2 ± 1.9.

And the “additional days free of disease compared to vehicle” value ([1]; 12.5 mg/Kg, 15 mice per group)?
Its value is 10 days.

And the “delay of peak of disease compared to vehicle” value ([1]; 12.5 mg/Kg, 15 mice per group)?
Its value is 6 days.

And the EAE inhibition ([1]; 12.5 mg/kg daily)?
The EAE inhibition was “complete inhibition of EAE”.

And the disease incidence ([1]; 12.5 mg/kg, alternate days)?
The disease incidence was 22%.

And the disease development ([1]; 30 mg/kg, alternate days)?
Its disease development is “completely inhibited disease development”.

What about the ED50 ([1]; Mus musculus) of the same compound?
Its ED50 is 3 mg/kg.

What about the minimal effective dose ([1]; alternate days) of the same compound?
Its minimal effective dose is 6 mg/kg.

And the minimal effective dose ([1]; daily administration)?
The minimal effective dose was 3.0 mg/kg.

What about the “pre-rRNA mRNA levels expressed by splenocytes” value (pre-rRNA) of the same compound?
The value was “significant dose dependent decrease”.

And the “suppression of splenocyte proliferation compared to Compound 1 (XTT)” value (Mouse splenocytes)?
The value was “improved performance”.

What about the IC50 (Mouse splenocytes; Splenocyte, mouse splenocytes, 25-400 nM) of the same compound?
The IC50 was 40 nM.

And the “inhibition of Pol I transcription from the pre-rRNA promoter” value (Pol I)?
Its value is “about 40%”.
